Test results taken from PMC9917023, “Stabilization of Monomeric Tau Protein by All D-Enantiomeric Peptide Ligands as Therapeutic Strategy for Alzheimer’s Disease and Other Tauopathies” (International Journal of Molecular Sciences, 2023).

Tested on: brain endothelial cells (RBMVEC) and astroglial cells (CTX TNA2)
Method: Each peptide was tested at different time points in triplicate next to an unseeded negative control (“Empty”) and quantitatively analyzed via HPLC using a calibration curve to determine the concentration of the peptide in the receiving chamber at each point in time (Figure 11). From these values, the volume of each chamber, and the respective time, a Papp permeability coefficient in cm²/s was calculated for each substance to represent its ability to cross the in vitro blood–brain barrier model.
An amount equaling 1 mg/mL TF2D-5 (A) or TF2D-5a (B) was added to an insert that was seeded and covered with endothelial and astroglial cells, representing the in vitro blood–brain barrier, or an empty insert serving as a control. After different time points, samples were taken and analyzed by quantitative HPLC analysis. Data given as mean ± SD out of three independent replicates.
Brain endothelial cells from rats and astroglial cells were used to cultivate the different sides of the porous membrane.
Brain endothelial cells from rats (RBMVEC, Cell Applications Inc., R840-05a, San Diego, CA, USA) were cultivated in Complete Classic medium (Cell Systems, Kirkland, WA, USA, 4Z0-500), and rat astroglial cells (CTX TNA2, ATCC, CRL-2006) were cultivated in Complete Classic medium (Cell Systems, Kirkland, WA, USA, 4Z0-500). The cells were allowed to grow in a humidified incubator with 5% CO2 at 37 °C and a maximum of 20 passages. The cells were passaged every 3 to 5 days, according to their confluence.
In order to set up the in vitro BBB model, the astroglial cells were seeded at a density of 600.000 cells/cm² on the outer (basolateral, “brain”) side of an insert with a porous membrane (Corning Transwell polycarbonate membrane cell culture inserts, CLS3415, 3 µM pore size) and allowed to grow/adhere overnight in the Complete Classic medium. The next day, brain endothelial cells were seeded at a density of 600.000 cells/cm² on the inner side (apical, “blood”) of the corresponding membrane. The seeded inserts were then cultivated to grow to full confluence over a period of 5 to 7 days, with the medium renewed daily. […] Prior to this, TEER (transendothelial electrical resistance values) were measured in each well to ensure the integrity of the in vitro BBB. At 0, 30, 60, 90, 120, 150, 180, and 240 min, 50 µL of the medium out of the outer chamber was taken and analyzed by HPLC. This 50 µL would then be replaced by the same amount of fresh serum-free medium to keep the fluid levels equal across both chambers. This slight dilution was factored into the following calculations. Furthermore, a dilution series of each reagent was analyzed alongside the samples as a calibration to quantify the analysis. […] The Papp values were calculated as follows (higher is better): Papp =(V/A∗C)∗(Dc/Dt)

Compound	Papp permeability coefficient [×10⁻⁶ cm/s]
Cn1c(=O)c2c(ncn2C)n(C)c1=O [Caffeine, reference compound]	31.8
O=C1OC2(c3ccc(O)cc3Oc3cc(O)ccc32)c2ccccc21 [Fluorescein, reference compound]	0.886
